{"source": "ChEMBL document CHEMBL1201862", "about": "“PubChem BioAssay data set” (2004)", "key": {"[1]": {"experiment": "loss of viability in HepG2 cells – cell-based, CellTiter-Glo, cherry-picked, cytotoxicity control for Shn3 inhibitor project, dose response (AID 624134)", "type": "functional"}, "[2]": {"experiment": "non-specific 3'UTR reporter inhibition in Clone20-Shn3RL – cell-based, Renilla luciferase, cherry-picked, counter-screen for Shn3 inhibitor project, dose response (AID 624133)", "type": "functional"}, "[3]": {"experiment": "reduction of Shn3 3'UTR-driven luciferase in osteoblasts – cell-based, Clone20 osteoblasts, firefly luciferase, cherry-picked, dose response (AID 624132)", "type": "functional"}, "[4]": {"target": "T1, Corticotropin-releasing factor receptor 2/Corticotropin-releasing factor-binding protein (Homo sapiens, UniProt P24387+Q13324)", "T1 sequence (Q13324 whole entry)": "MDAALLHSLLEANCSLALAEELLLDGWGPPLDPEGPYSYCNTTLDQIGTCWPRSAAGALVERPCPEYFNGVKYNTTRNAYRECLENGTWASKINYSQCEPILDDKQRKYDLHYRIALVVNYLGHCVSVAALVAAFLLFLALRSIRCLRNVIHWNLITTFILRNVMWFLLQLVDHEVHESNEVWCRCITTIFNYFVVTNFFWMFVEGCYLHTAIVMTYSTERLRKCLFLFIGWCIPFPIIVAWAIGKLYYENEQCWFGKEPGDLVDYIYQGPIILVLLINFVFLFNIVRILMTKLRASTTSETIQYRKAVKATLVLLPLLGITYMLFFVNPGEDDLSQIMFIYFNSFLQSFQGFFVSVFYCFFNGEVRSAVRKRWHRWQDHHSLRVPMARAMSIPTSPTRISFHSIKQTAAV", "T1 sequence (P24387 whole entry)": "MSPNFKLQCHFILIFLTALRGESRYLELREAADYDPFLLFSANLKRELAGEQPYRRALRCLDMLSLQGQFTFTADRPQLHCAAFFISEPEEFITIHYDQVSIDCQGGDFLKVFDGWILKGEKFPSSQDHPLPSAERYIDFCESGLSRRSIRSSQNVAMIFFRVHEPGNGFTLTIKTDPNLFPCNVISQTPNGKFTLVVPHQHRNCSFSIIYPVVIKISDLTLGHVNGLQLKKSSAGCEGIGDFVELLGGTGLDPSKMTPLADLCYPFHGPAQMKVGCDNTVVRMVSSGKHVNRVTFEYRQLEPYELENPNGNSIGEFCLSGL", "experiment": "Dose Response confirmation of uHTS hits for small molecule antagonists of the CRF-binding protein and CRF-R2 receptor complex.", "type": "functional", "conditions": "read-out: IC50_Mean"}, "[5]": {"target": "T1, Corticotropin-releasing factor receptor 2/Corticotropin-releasing factor-binding protein", "experiment": "activators of CRF receptor 2 with binding protein – uHTS hits, confirmation (AID 602473)", "type": "functional", "conditions": "read-out: EC50_Mean"}, "[6]": {"target": "T2, Replicative DNA helicase DnaB (Mycobacterium tuberculosis, UniProt P9WMR3)", "T2 sequence (P9WMR3 whole entry)": "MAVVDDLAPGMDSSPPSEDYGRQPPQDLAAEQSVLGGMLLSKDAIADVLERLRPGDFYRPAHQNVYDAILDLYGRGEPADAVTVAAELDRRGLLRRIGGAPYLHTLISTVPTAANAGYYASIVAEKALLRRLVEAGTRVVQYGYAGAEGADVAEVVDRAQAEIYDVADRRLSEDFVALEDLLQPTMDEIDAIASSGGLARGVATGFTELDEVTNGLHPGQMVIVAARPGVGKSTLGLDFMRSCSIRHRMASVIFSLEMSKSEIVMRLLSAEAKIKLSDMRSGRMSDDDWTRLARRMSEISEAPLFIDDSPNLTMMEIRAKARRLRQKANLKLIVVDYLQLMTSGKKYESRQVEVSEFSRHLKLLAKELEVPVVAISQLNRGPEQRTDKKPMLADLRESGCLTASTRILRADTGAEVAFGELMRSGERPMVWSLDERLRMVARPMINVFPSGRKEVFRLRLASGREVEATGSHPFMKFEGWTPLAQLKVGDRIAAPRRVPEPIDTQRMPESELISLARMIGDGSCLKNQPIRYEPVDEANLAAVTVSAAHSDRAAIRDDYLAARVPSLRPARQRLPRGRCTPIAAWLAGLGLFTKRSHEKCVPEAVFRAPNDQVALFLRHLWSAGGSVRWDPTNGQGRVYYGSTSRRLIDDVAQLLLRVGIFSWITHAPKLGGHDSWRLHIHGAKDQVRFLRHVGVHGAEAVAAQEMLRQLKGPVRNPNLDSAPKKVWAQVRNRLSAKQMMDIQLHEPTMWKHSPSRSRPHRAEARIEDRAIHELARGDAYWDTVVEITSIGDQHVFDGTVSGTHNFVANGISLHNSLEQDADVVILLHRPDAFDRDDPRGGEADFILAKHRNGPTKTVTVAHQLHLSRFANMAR", "experiment": "DnaB intein splicing inhibitors, dose response, biochemical, cell-free fluorescence (AID 449749)", "type": "functional"}, "Protein RecA": {"target": "T3, Protein RecA (Mycobacterium tuberculosis, UniProt P9WHJ3)", "T3 sequence (P9WHJ3 whole entry)": "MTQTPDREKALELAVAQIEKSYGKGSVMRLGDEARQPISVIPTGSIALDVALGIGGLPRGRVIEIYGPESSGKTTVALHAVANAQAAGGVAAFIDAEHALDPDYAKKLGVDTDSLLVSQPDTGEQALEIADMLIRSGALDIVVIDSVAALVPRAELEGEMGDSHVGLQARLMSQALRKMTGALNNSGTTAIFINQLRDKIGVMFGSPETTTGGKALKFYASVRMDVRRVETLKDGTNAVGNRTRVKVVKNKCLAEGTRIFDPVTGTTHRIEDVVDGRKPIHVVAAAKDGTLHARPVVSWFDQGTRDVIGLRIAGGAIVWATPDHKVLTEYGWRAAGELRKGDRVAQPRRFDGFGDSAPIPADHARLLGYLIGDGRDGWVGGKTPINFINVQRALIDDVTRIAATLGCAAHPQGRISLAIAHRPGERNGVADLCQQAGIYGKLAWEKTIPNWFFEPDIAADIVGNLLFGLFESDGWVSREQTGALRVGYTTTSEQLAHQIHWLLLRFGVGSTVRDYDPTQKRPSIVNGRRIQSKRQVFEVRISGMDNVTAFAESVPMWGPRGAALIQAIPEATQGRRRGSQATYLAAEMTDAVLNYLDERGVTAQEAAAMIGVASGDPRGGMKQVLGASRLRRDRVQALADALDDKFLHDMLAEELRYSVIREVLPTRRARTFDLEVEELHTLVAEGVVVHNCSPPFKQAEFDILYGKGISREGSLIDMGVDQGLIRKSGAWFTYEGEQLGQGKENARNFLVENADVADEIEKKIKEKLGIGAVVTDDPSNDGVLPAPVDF", "experiment": "Fluorescence Cell-Free Homogeneous Dose Retest to Identify Inhibitors of RecA-Intein Splicing Activity. [Related pubchem assays (depositor defined):AID2097, AID2223, AID489010, AID492950]", "type": "functional"}, "cells [7]": {"experiment": "cells"}, "[8]": {"experiment": "Trypanosoma cruzi growth suppression in host cells – NIH3T3 host cells, beta-gal luminescence, confirmation (AID 2044);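 note: intracellular parasites grown in NIH/3T3 mouse fibroblasts as host cells; luminescent beta-galactosidase reporter signal from transgenic T. cruzi replicating inside host cells; inhibitors lower the luminescence signal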", "type": "functional, cell-based"}, "[9]": {"experiment": "NIH3T3 cell viability loss – ATP luminescence, mouse fibroblasts, counter-screen, dose response (AID 2010);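 note: cells exposed to compound for about 90 hours before reading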", "type": "functional, cell-based"}, "H4": {"system": "H4", "experiment": "Luminescence Cell-Based Dose Response HTS to Identify Activators of 5'UTR Stem-Loop Driven Prion Protein mRNA Translation in H4 Neuroglioblastoma Cells. [Related pubchem assays: 1829 (Project Summary), 1814 (Primary HTS)]", "type": "functional", "conditions": "Homo sapiens"}, "[10]": {"experiment": "Luminescence Cell-Based Dose Response HTS to Identify Activators of Luciferase Translation or Activity in H4 […] Cells. [Related pubchem assays: 1829 (Project Summary), 1814 (Primary HTS)]", "type": "functional"}, "cells [11]": {"experiment": "cells", "type": "functional, cell-based"}, "cells [12]": {"experiment": "cells", "type": "functional, cell-based", "remark": "listed apart in the source"}, "Paired box protein Pax-8": {"target": "Paired box protein Pax-8 (Homo sapiens, UniProt Q06710)", "sequence (Q06710 whole entry)": "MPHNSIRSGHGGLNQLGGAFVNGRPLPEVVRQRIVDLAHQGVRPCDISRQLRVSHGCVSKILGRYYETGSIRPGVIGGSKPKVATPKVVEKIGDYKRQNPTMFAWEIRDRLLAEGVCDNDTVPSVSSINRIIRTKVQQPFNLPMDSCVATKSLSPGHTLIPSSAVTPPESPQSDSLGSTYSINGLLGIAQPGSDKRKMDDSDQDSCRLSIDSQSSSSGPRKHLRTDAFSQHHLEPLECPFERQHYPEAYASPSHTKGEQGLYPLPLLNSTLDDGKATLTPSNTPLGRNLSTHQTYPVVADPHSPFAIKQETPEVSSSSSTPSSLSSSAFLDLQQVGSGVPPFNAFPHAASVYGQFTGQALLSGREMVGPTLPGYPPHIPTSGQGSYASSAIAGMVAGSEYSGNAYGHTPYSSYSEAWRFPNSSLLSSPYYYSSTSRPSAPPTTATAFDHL", "experiment": "PAX8 transcriptional activity inhibition in RMG-I – RMG-I cells, luciferase, cherry-pick, dose response (AID 687027);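 note: luciferase reporter driven by Pax8 target thyroperoxidase promoter measured by SteadyGlo luminescence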", "type": "functional, cell-based"}}, "note": "Active and inactive are the calls of the source."}
{"smiles": "CN(c1ccccc1)S(=O)(=O)c1cc(C(=O)OCC(=O)N2CCN(C(=O)c3ccco3)CC2)ccc1Cl", "values": [{"measurement": "AC50", "setting": "[1]", "value": "> 70 µM (inactive)"}, {"measurement": "AC50", "setting": "[2]", "value": "30.6 µM (active)"}, {"measurement": "AC50", "setting": "[3]", "value": "62.9 µM (active)"}]}
{"smiles": "CCOC(=O)c1cc(S(=O)(=O)Nc2ccc(F)cc2F)cn1C", "values": [{"measurement": "IC50", "setting": "[4]", "value": "> 47.1 µM (inactive)"}, {"measurement": "EC50", "setting": "[5]", "value": "> 53 µM (inactive)"}]}
{"smiles": "O=[N+]([O-])c1cccc2c([As](=O)(O)O)cccc12", "values": [{"measurement": "AC50", "setting": "[6]", "value": "16.4 µM (active)"}, {"measurement": "EC50", "setting": "Protein RecA", "value": "10.1 µM (active)"}]}
{"smiles": "CN(C)CCCNC(=O)c1ccccc1Oc1ccccc1", "values": [{"measurement": "IC50", "setting": "[4]", "value": "> 47.1 µM (inactive)"}, {"measurement": "EC50", "setting": "[5]", "value": "> 53 µM (inactive)"}]}
{"smiles": "COc1cccc(NC(=O)COC(=O)c2ccccc2C(=O)N2CCN(c3ccccc3)CC2)c1", "values": [{"measurement": "IC50", "setting": "[4]", "value": "> 47.1 µM (inactive)"}, {"measurement": "EC50", "setting": "[5]", "value": "> 53 µM (inactive)"}]}
{"smiles": "O=C(CC12CC3CC(CC(C3)C1)C2)N/N=C/c1ccc([N+](=O)[O-])o1", "values": [{"measurement": "EC50", "setting": "cells [7]", "value": "0.019 µM (active)"}, {"measurement": "EC50", "setting": "[8]", "value": "< 0.1 µM (active)"}, {"measurement": "EC50", "setting": "[9]", "value": "> 60 µM (not active)"}]}
{"smiles": "Cc1c(C(=O)NCc2cccnc2)oc2ccccc12", "values": [{"measurement": "IC50", "setting": "[4]", "value": "> 47.1 µM (inactive)"}, {"measurement": "EC50", "setting": "[5]", "value": "> 53 µM (inactive)"}]}
{"smiles": "Cn1c(C(=O)NCC2CCCO2)cc2oc3ccccc3c21", "note": "(stereo not given)", "values": [{"measurement": "EC50", "setting": "H4", "value": "47 µM (active)"}, {"measurement": "EC50", "setting": "[10]", "value": "0.289 µM (active)"}]}
{"smiles": "CCCCNS(=O)(=O)c1ccc(S(=O)(=O)NCc2ccncc2)cc1", "values": [{"measurement": "AC50", "setting": "[1]", "value": "6.47 µM (active)"}, {"measurement": "AC50", "setting": "[2]", "value": "23 µM (active)"}, {"measurement": "AC50", "setting": "[3]", "value": "2.4 µM (active)"}]}
{"smiles": "COc1ccc(NC(=S)NCc2cccnc2)cc1", "values": [{"measurement": "IC50", "setting": "[4]", "value": "9.74 µM (active)"}, {"measurement": "EC50", "setting": "[5]", "value": "> 53 µM (inactive)"}]}
{"smiles": "O=C(NCCc1ccccc1)c1cc2sccc2n1Cc1ccccc1", "values": [{"measurement": "EC50", "setting": "cells [11]", "value": "> 350 µM (not active)"}, {"measurement": "EC50", "setting": "cells [12]", "value": "> 350 µM (not active)"}]}
{"smiles": "O=C(Nc1nc(-c2cccs2)c(-c2cccs2)s1)C1(c2ccccc2)CC1", "values": [{"measurement": "AC50", "setting": "Paired box protein Pax-8", "value": "51.1 µM (active)"}]}
{"smiles": "C[C@@H]1CCCCO[C@H](CN(C)Cc2ccc(Cl)c(Cl)c2)[C@H](C)CN([C@@H](C)CO)C(=O)c2cc(NC(=O)Nc3ccccc3)ccc2O1", "values": [{"measurement": "AC50", "setting": "Paired box protein Pax-8", "value": "8.42 µM (active)"}]}
{"smiles": "Cc1ccc(S(=O)(=O)N2CCc3ccccc3CC2)cc1", "values": [{"measurement": "AC50", "setting": "[1]", "value": "44.8 µM (active)"}, {"measurement": "AC50", "setting": "[2]", "value": "3.03 µM (active)"}, {"measurement": "AC50", "setting": "[3]", "value": "3.29 µM (active)"}]}
